Results taken from article PMC9329053, “Discovery of Novel Tyrosinase Inhibitors From Marine Cyanobacteria” (Frontiers in Microbiology, 2022).
Read-outs that look alike come from different tables or passages of the source. One block for each compound: values may come before it.

Assays:
[1] = target: Mushroom tyrosinase; conditions: cited from earlier work
[2] = design: method as in Malla and Sommer, 2014; Kang et al., 2020; conditions: ref Malla and Sommer, 2014; Kang et al., 2020; cited from earlier work
[3] = target: T1, mushroom tyrosinase (A. bisporus) (Agaricus bisporus, UniProt C7FF04); experiment: Dynamic dose-dependent tyrosinase inhibition study; type: biochemical
T1 construct: purchased Sigma-Aldrich and Worthington Biochemical Corp
T1 sequence (C7FF04 1-392): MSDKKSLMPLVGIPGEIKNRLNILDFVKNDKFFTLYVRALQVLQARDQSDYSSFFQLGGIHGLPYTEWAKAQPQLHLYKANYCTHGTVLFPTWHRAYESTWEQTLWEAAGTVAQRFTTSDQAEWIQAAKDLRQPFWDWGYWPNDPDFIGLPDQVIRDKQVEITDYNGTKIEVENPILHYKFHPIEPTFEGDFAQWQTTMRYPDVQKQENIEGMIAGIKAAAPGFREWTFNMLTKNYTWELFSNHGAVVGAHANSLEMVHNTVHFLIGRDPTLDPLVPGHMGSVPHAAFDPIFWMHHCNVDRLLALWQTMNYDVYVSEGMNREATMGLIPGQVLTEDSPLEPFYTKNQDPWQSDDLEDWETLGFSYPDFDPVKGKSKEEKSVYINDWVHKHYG
Procedure: Respectively, the final concentration gradient of the test samples was set to be 200, 150, 75, 25, 5, and 1 μM. For OD measurements, the plate was read in the dynamic mode for 60 min with measurements recorded every minute, using the SpectraMax M3 plate reader at 475 nm and 490 nm. Forty-five seconds of shaking was also performed before first reading to retain method consistency.

[4] = target: T2, mushroom tyrosinase (Agaricus bisporus, UniProt C7FF04); experiment: Kinetic analysis of tyrosinase and inhibitors (Lineweaver-Burk); type: biochemical, A. bisporus
T2 construct: purchased Sigma-Aldrich and Worthington Biochemical Corp
T2 sequence (C7FF04 1-392): as above
Procedure: The Lineweaver–Burk plot was generated using Graphpad Prism 9.2.0. Experiments were performed in triplicate.
A kinetic study was performed to better understand the tyrosinase inhibitory properties of ScyM. For this kinetic mode analysis, varying concentrations of substrate and inhibitor were used in the assays in order to generate Lineweaver–Burk plots. […] The Lineweaver–Burk plot (Figures 6A,B), also known as the double reciprocal plot, is commonly used to determine the mechanism of how an inhibitor is inhibiting an enzyme. […] Two inhibition parameters, the Michaelis–Menten constant (Km) and maximal velocity (Vmax), are also visualized in this plot. […] The apparent Km and Vmax values were calculated as an average of triplicate measurements and are provided with standard deviations (see Table 2).

[5] = Solubility of ScyM in the assay buffer system
[6] = target: T1, mushroom tyrosinase (A. bisporus); experiment: End-point colorimetric tyrosinase inhibition assay (broad screening); type: biochemical; conditions: within 20 minutes; 475 and 490 nm; blank with enzyme rises to ~0.100
Procedure: Four types of assay wells were designated for each screening plate (see Supplementary Figure S2 for visualization), in which the following reaction mixtures were added: A [Blank Control with Enzyme] contains 2 μl of DMSO, 118 μl of prepared 0.067 M sodium phosphate buffer and 40 μl of tyrosinase (100 units/ml) in the same buffer; B [Blank Control without Enzyme] contains 2 μl of DMSO and 158 μl of 0.067 M sodium phosphate buffer; C [Testing Material with Enzyme] contains 2 μl of sample (1 mg/ml in DMSO), 118 μl of 0.067 M sodium phosphate buffer and 40 μl of tyrosinase (100 Units/mL) in the same buffer; D [Testing Material without Enzyme] contains 2 μl of sample (1 mg/ml in DMSO) and 158 μl of 0.067 M sodium phosphate buffer. Samples were tested in triplicate.
The final test sample concentration was 10 μg/ml, while the final DMSO concentrations for both negative controls and samples kept ≤1%. […] Forty-five seconds of shaking was performed by the instrument before the wells were read.
The percentage inhibition of the tyrosinase activity was calculated by the equation: % Inhibition = {[(A − B) − (C − D)]/(A − B)} × 100, where A, B, C and D are all OD values from the corresponding wells at the same time point. It reflects the inhibitory strength of the testing material by comparing to the blank condition where no inhibitor is added.

[7] = target: T3, tyrosinase (Agaricus bisporus, UniProt C7FF04); experiment: Isobologram / interaction index analysis of ScyM and KA; type: biochemical, A. bisporus; conditions: single compounds, determined again for the isobologram; read-out: IC50 (another round of dose-dependent assays)
T3 construct: purchased Sigma-Aldrich and Worthington Biochemical Corp
T3 sequence (C7FF04 1-392): as above
Text: Based on the derived equation, γ=∑i=2ndi/Di , where Di represents the dose of an individual drug to achieve 50% efficacy when acting alone, and di represents the dose of each drug in the compound mixture when the combined drug achieves 50% efficacy. Accordingly, when the interactions between drugs are synergistic, additive, and antagonistic, the corresponding values of γ are <1, = 1, and >1, respectively. Therefore, the smaller the index value, the stronger the synergistic effect.

[8] = tested on: NCI-H460 human lung carcinoma cell line; experiment: MTT cytotoxicity assay; type: cell-based; conditions: H460 human lung cancer cells; no significant effect at concentration as high as 254 μM
Procedure: The cytotoxicity assay was performed using a protocol previously published ([Yu H.-B. et al., 2019]; [Leber et al., 2020]). Briefly, the MTT staining method was used to determine the cytotoxicity of compounds of interest using the NCI-H460 human lung carcinoma cell line purchased from ATCC (Manassas, VA, United States). The cells were grown in flasks and then seeded into wells at 3.33 × 10^4 cells/ml of Roswell Park Memorial Institute (RPMI-1640) medium with standard fetal bovine serum (FBS), leading to 180 μl/well. The cells were then pre-incubated for 24 h at 37°C in 96-well plates before drug was added. Thereafter, with addition of diluted compounds of interest dissolved in DMSO, plates were incubated for an additional 48 h and then stained with MTT (thiazolyl blue tetrazolium bromide 98%; Sigma-Aldrich) for 25 min, after which the optical densities (OD) were recorded at 630 and 570 nm for each well on a SpectraMax M3 plate reader (Molecular Devices, San Jose, CA, United States). Doxorubicin and 1% DMSO in RPMI-1640 without fetal bovine serum were used as positive and negative controls, respectively. Polyethylene glycol (PEG) was used to facilitate dissolution of compounds with limited solubility.

[9] = mushroom tyrosinase, SD not given, ref Sheng et al., 2018
[10] = mushroom tyrosinase, SD not given, ref Wu et al., 2013
[11] = mushroom tyrosinase, SD not given, ref Li et al., 2005
[12] = mushroom tyrosinase, ref Paudel et al., 2019

Compound: Cc1ccc(C(C)C)c(OC(=O)/C=C/c2ccc(O)cc2)c1 [(E)-2-Isopropyl-5-methylphenyl-3-(4-hydroxyphenyl)acrylate]
IC50 [1, 9]: 10.6 µM
Mechanism ([1]; ref Sheng et al., 2018): Mixed

tyrosinase inhibition in dose-dependent assay ([3]; all concentrations tested, from 1 up to 200 μM): almost no inhibition
Compound: scytonemin
cytotoxicity [2]: non-cytotoxic

Compound: CC(=O)OC[C@]12[C@H](OC(C)=O)[C@H](O)C[C@H](C)[C@]1(OC(C)=O)[C@@H](OC(C)=O)[C@@H](C(C)(C)O)C[C@H]2OC(=O)c1ccccc1 [1β,5α,6α,14-Tetraacetoxy-9α-benzoyloxy-7β H-eudesman-2β,11-diol]
IC50 [1, 10]: 14.8 µM

Compound: O=C(O)c1ccc(C(=O)O)cc1 [Terephthalic acid]
IC50 ([1]; mushroom tyrosinase, ref Yin et al., 2011): 26600 µM
Mechanism ([1]; ref Yin et al., 2011): Mixed

Compound: C=C[C@]1(O)CC(NC=O)=CC1=O [Myrothenone A]
IC50 [1, 11]: 6.6 µM

Compound: CC(=O)O[C@@]12C[C@@H](C(C)(C)O)C[C@@H](OC(=O)c3ccccc3)[C@@]1(CO)[C@H](O)[C@H](O)C[C@@]2(C)OC(C)=O [4α,5α-Diacetoxy-9α-benzoyloxy-7βH-eudesman-1β,2β,11, 14-tetraol]
IC50 [1, 10]: 22.3 µM

Compound: O=C(O)c1cccc(-c2ccccc2)c1 [3-Phenylbenzoic acid (3-PBA), 3-Phenylbenzoic acid]
IC50 ([1]; mushroom tyrosinase, SD not given, ref Oyama et al., 2016): 36.3 µM
Mechanism ([1]; ref Oyama et al., 2016): Mixed

Inhibition mode ([4]; Lineweaver-Burk plot, L-Dopa substrate): Mixed
Mechanism ([4]; Table 3, this experiment): Mixed
Vmax (OD·min^−1) ([4]; apparent Vmax of tyrosinase with inhibitor, L-Dopa substrate, triplicate with SD): 5.98 ± 0.52 OD·min^−1
saturation point in the assay system ([5]; 0.067 M sodium phosphate buffer, ≤1% DMSO, precipitate seen at 75, 150 and 200 μM): less than 75 μM
dissolution in the assay buffer system ([5]; range of 0–10 μM): fully dissolves with no precipitate
OD reading with tyrosinase enzyme [6]: ~ 0.080
IC50 [7]: 4.7 µM
IC50 [3]: 4.9 ± 0.3 µM
inhibition at 25 µM ([3]; read-out: inhibition by crude ScyM): ~60%
inhibition at 10 µM ([3]; read-out: inhibition by purified ScyM): ~60%
Compound: O=C1Cc2c([nH]c3ccccc23)/C1=C\c1ccc(O)cc1 [ScyM, scytonemin monomer]
cytotoxicity [8]: non-cytotoxic

Compound: OCCc1c(Br)c(O)c(O)c(Br)c1Br [2,3,6-Tribromo-4,5-dihydroxybenzyl methyl alcohol]
IC50 [1, 12]: 270.5 ± 2.04 µM
Mechanism ([1]; ref Paudel et al., 2019): Competitive

Compound: O=c1cc(-c2ccccc2)oc2cc(O)c(O)c(O)c12 [Baicalein]
IC50 ([1]; mushroom tyrosinase, SD not given, ref Guo et al., 2018): 110 µM
Mechanism ([1]; ref Guo et al., 2018): Mixed

inhibition at 35 µM ([3]; 35 μM): ~1%
Compound: COc1ccc(/C=C2/C(=O)Cc3c2[nH]c2ccccc32)cc1 [ScyM-OMe, O-Methyl Scytonemin Monomer]

Compound: COc1ccc(/C=C/C(=O)Oc2cc(OC)ccc2C(C)=O)cc1 [(E)-2-Acetyl-5-methoxyphenyl-3-(4-methoxyphenyl)acrylate]
IC50 [1, 9]: 8.3 µM
Mechanism ([1]; ref Sheng et al., 2018): Mixed

Compound: O=C1C=C2CC3(O)COc4cc(O)ccc4C3=C2C=C1O (stereo not drawn) [Brazilein]
IC50 ([1]; mushroom tyrosinase, ref Hridya et al., 2015): 21200 µM
Mechanism ([1]; ref Hridya et al., 2015): Mixed

melting point: > 210 °C
Compound: O=C1Cc2c([nH]c3ccccc23)/C1=C\c1ccc(O)cc1 (hydrate or solvate) [ScyM, scytonemin monomer]

Compound: Bis-(2,3,6-tribromo-4,5-dihydroxybenzyl methyl ether
IC50 [1, 12]: 111 ± 4.95 µM
Mechanism ([1]; ref Paudel et al., 2019): Competitive

Compound: CCCCCc1cccc(=O)o1 [6-n-Pentyl-α-pyrone]
IC50 [1, 11]: 0.8 µM

Compound: CC[C@H](C)[C@@H]1NC(=O)[C@H](Cc2ccc(O)cc2)N(C)C(=O)[C@H]([C@H](C)O)N2C(=O)[C@H](CC[C@H]2O)NC(=O)[C@H](CC(C)C)NC(=O)[C@@H](NC(=O)[C@H](CCC(N)=O)NC(=O)[C@H](CCc2ccc(O)cc2)NC(=O)[C@H](O)CO)[C@@H](C)OC1=O [oscillapeptin G]
IC50 ([1]; tyrosinase, post-conversion, ref Sano and Kaya, 1996): ~100 µM
